Laboratory results as given in PubChem BioAssay (NCI).
Several values for one entry are separate records, joined by “and”; a condition that tells them apart may be missing. Equal values may be shown once.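 A five-concentration, 48-hour dose response in 96-well plates underlies each endpoint, interpolated linearly between surrounding concentrations. The concentration for 50% growth inhibition is given as GI50. TGI: total growth inhibition.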

Experiments:
Assay in all cases: DTP human tumour cell line panel, 48 h
CCRF-CEM leukemia = system: CCRF-CEM leukemia
HCC-2998 colon = system: HCC-2998 colon
HCT-15 colon = system: HCT-15 colon
HOP-92 NSCLC = system: HOP-92 NSCLC
K-562 leukemia = system: K-562 leukemia
KM12 colon = system: KM12 colon
MDA-MB-231 breast = system: MDA-MB-231 breast
MDA-MB-435 = system: MDA-MB-435
OVCAR-4 ovarian = system: OVCAR-4 ovarian
TK-10 renal = system: TK-10 renal

For `C=CCOn1c(C=C)nc2ccc(C)cc21`, the TGI (CCRF-CEM leukemia) was 7.21 µM, the TGI (HCC-2998 colon) was 33 µM and the TGI (HCT-15 colon) was 68.2 µM. It also gave a TGI (HOP-92 NSCLC) greater than 100 µM, a TGI (K-562 leukemia) of 55.3 µM and a TGI (KM12 colon) of 44.2 µM. The TGI (MDA-MB-231 breast) was 48.1 µM, the TGI (MDA-MB-435) was 44.5 µM and the TGI (OVCAR-4 ovarian) was greater than 100 µM. It also gave a TGI (TK-10 renal) of 32.4 µM.
In the case of `C/C(=N\Nc1nc2cc(C(F)(F)F)ccc2s1)c1ccccn1`, the TGI (CCRF-CEM leukemia) is reported as greater than 100 µM, the TGI (HCC-2998 colon) is reported as 18.3 µM and the TGI (HCT-15 colon) is reported as greater than 38.9 µM. The TGI (HOP-92 NSCLC) was 8.15 µM, the TGI (K-562 leukemia) was greater than 100 µM and the TGI (KM12 colon) was 9.03 µM. The TGI (MDA-MB-231 breast) was 0.791 µM, the TGI (MDA-MB-435) was 7.62 µM and the TGI (OVCAR-4 ovarian) was 32.6 µM. The TGI (TK-10 renal) was 17.3 µM.
`CN(C)Cc1cc(C(=O)/C=C/c2ccccc2)cc(CN(C)C)c1O` showed a TGI (CCRF-CEM leukemia) greater than 100 µM, a TGI (HCC-2998 colon) of 64.8 µM and a TGI (HCT-15 colon) greater than 100 µM. It also gave a TGI (HOP-92 NSCLC) of 67.4 µM, a TGI (K-562 leukemia) of 36.8 µM and a TGI (KM12 colon) of 33.8 µM. It also gave a TGI (MDA-MB-231 breast) of 58.1 µM, a TGI (MDA-MB-435) greater than 100 µM and a TGI (OVCAR-4 ovarian) greater than 100 µM. The TGI (TK-10 renal) was greater than 100 µM.
Compound `COc1ccc2[nH]c(O)c(/C=c3/cc4c(c(-c5ccc(F)c(OC)c5)n3)=Nc3ccccc3-4)c2c1` has a GI50 (CCRF-CEM leukemia) of 2.13 µM, a TGI (CCRF-CEM leukemia) of 9.88 µM and a GI50 (HCC-2998 colon) of 2.13 µM. It also gave a TGI (HCC-2998 colon) of 4.62 µM, a GI50 (HCT-15 colon) of 2.36 µM and a TGI (HCT-15 colon) of 5.63 µM. The GI50 (HOP-92 NSCLC) was 1.5 µM, the TGI (HOP-92 NSCLC) was 6.62 µM and the GI50 (K-562 leukemia) was 3.16 µM. It also gave a TGI (K-562 leukemia) of 10.2 µM, a GI50 (KM12 colon) of 2.58 µM and a TGI (KM12 colon) of 7.3 µM. It also gave a GI50 (MDA-MB-231 breast) of 1.47 µM, a TGI (MDA-MB-231 breast) of 3.14 µM and a GI50 (MDA-MB-435) of 2.39 µM. It also gave a TGI (MDA-MB-435) of 6.01 µM, a GI50 (OVCAR-4 ovarian) of 3.53 µM and a TGI (OVCAR-4 ovarian) of 16.3 µM. The GI50 (TK-10 renal) was 2.91 µM and the TGI (TK-10 renal) was 6.95 µM.
With `O=C(Nc1ccccc1C(=O)NCc1ccccc1)/C(=C/c1ccccc1)NC(=O)c1ccccc1` the TGI (CCRF-CEM leukemia) was greater than 100 µM, the TGI (HCC-2998 colon) was greater than 100 µM and the TGI (HCT-15 colon) was greater than 100 µM. The TGI (HOP-92 NSCLC) was greater than 100 µM, the TGI (K-562 leukemia) was greater than 100 µM and the TGI (KM12 colon) was greater than 100 µM. The TGI (MDA-MB-231 breast) was greater than 100 µM, the TGI (MDA-MB-435) was greater than 100 µM and the TGI (OVCAR-4 ovarian) was greater than 100 µM. It also gave a TGI (TK-10 renal) greater than 100 µM.
Work on `O=C1OC[C@H]2[C@@H]1[C@H]1O[C@@H]2C2=C(CCC2)C1=O` yielded a TGI (CCRF-CEM leukemia) greater than 100 µM, a TGI (HCC-2998 colon) greater than 100 µM and a TGI (HCT-15 colon) greater than 100 µM. The TGI (HOP-92 NSCLC) was greater than 100 µM, the TGI (K-562 leukemia) was greater than 100 µM and the TGI (KM12 colon) was greater than 100 µM. For the same compound, the TGI (MDA-MB-231 breast) was greater than 100 µM, the TGI (MDA-MB-435) was greater than 100 µM and the TGI (OVCAR-4 ovarian) was greater than 100 µM. The TGI (TK-10 renal) was greater than 100 µM.
In the case of `CC1=C2C(=CO[C@H](C)[C@H]2C)C(=O)C(C(=O)O)=C1O`, the GI50 (CCRF-CEM leukemia) is reported as 27.7 µM, the TGI (CCRF-CEM leukemia) is reported as > 88.7 µM and 45.9 µM and the GI50 (HCC-2998 colon) is reported as 23.7 µM. For the same compound, the TGI (HCC-2998 colon) was 42.6 µM and 57.9 µM, the GI50 (HCT-15 colon) was 19.6 µM and the TGI (HCT-15 colon) was 60.3 µM and 40.8 µM. For the same compound, the GI50 (HOP-92 NSCLC) was 16.1 µM, the TGI (HOP-92 NSCLC) was 72.6 µM and 46.3 µM and the GI50 (K-562 leukemia) was 36.9 µM. The TGI (K-562 leukemia) was 54.8 µM, the GI50 (KM12 colon) was 19.2 µM and the TGI (KM12 colon) was 87.5 µM and 48.8 µM. For the same compound, the TGI (MDA-MB-231 breast) was 58.5 µM, the TGI (MDA-MB-435) was 76.1 µM and the TGI (OVCAR-4 ovarian) was > 80.5 µM and 87.5 µM. It also gave a TGI (TK-10 renal) of 63.7 µM.
Work on `CC(C)=CCNc1nc(Cl)nc2nc[nH]c12` yielded a TGI (CCRF-CEM leukemia) greater than 100 µM, a TGI (HCC-2998 colon) greater than 100 µM and a TGI (HOP-92 NSCLC) of 87.5 µM. The TGI (K-562 leukemia) was greater than 100 µM, the TGI (KM12 colon) was greater than 100 µM and the TGI (MDA-MB-231 breast) was 68.2 µM. For the same compound, the TGI (MDA-MB-435) was greater than 100 µM, the TGI (OVCAR-4 ovarian) was greater than 100 µM and the TGI (TK-10 renal) was greater than 100 µM.
`CC(C)(C)OC(=O)NCC(CNC(=O)OC(C)(C)C)c1nc(C(N)=O)cs1` gave a TGI (CCRF-CEM leukemia) greater than 100 µM, a TGI (HCC-2998 colon) greater than 100 µM and a TGI (HCT-15 colon) greater than 100 µM. The TGI (HOP-92 NSCLC) was greater than 100 µM, the TGI (K-562 leukemia) was greater than 100 µM and the TGI (KM12 colon) was greater than 100 µM. For the same compound, the TGI (MDA-MB-231 breast) was greater than 100 µM, the TGI (MDA-MB-435) was greater than 100 µM and the TGI (OVCAR-4 ovarian) was greater than 100 µM. It also gave a TGI (TK-10 renal) greater than 100 µM.
Compound `C=C=C(CC(CC(=C)Br)(C(=O)OC)C(=O)OC)S(=O)(=O)c1ccccc1` has a TGI (CCRF-CEM leukemia) greater than 100 µM, a TGI (HCC-2998 colon) of 9.18 µM and a TGI (HCT-15 colon) of 3.44 µM. It also gave a TGI (HOP-92 NSCLC) of 3.97 µM, a TGI (K-562 leukemia) greater than 100 µM and a TGI (KM12 colon) of 5.81 µM. For the same compound, the TGI (MDA-MB-231 breast) was 4.93 µM, the TGI (MDA-MB-435) was 4.17 µM and the TGI (OVCAR-4 ovarian) was 21.2 µM. For the same compound, the TGI (TK-10 renal) was 4.8 µM.
With `Cc1c(C(=O)OCc2ccccc2)[n+](=O)c2cc(Cl)c(Cl)cc2n1[O-]` the TGI (CCRF-CEM leukemia) was 39.4 µM, the TGI (HCC-2998 colon) was 28.5 µM and the TGI (HCT-15 colon) was 34.1 µM. The TGI (HOP-92 NSCLC) was 20 µM, the TGI (K-562 leukemia) was 57.6 µM and the TGI (KM12 colon) was 24.6 µM. For the same compound, the TGI (MDA-MB-231 breast) was 38.2 µM, the TGI (MDA-MB-435) was 42.4 µM and the TGI (OVCAR-4 ovarian) was 26.9 µM. It also gave a TGI (TK-10 renal) of 40.3 µM.
For `NN=C(CC(O)(C(F)(F)Cl)C(F)(F)Cl)CC(O)(C(F)(F)Cl)C(F)(F)Cl`, the TGI (CCRF-CEM leukemia) was greater than 10 µM, the TGI (HCC-2998 colon) was greater than 10 µM and the TGI (HCT-15 colon) was greater than 10 µM. It also gave a TGI (HOP-92 NSCLC) greater than 10 µM, a TGI (K-562 leukemia) greater than 10 µM and a TGI (KM12 colon) greater than 10 µM. The TGI (MDA-MB-231 breast) was greater than 10 µM, the TGI (MDA-MB-435) was greater than 10 µM and the TGI (OVCAR-4 ovarian) was greater than 10 µM. The TGI (TK-10 renal) was greater than 10 µM.
`C/C(=N\Nc1nc2ccccc2n1C)c1cc2ccccc2cn1` showed a TGI (CCRF-CEM leukemia) greater than 54.3 µM, a TGI (HCC-2998 colon) of 41.9 µM and a TGI (HCT-15 colon) of 20.7 µM. It also gave a TGI (HOP-92 NSCLC) of 3.86 µM, a TGI (K-562 leukemia) greater than 100 µM and a TGI (KM12 colon) of 16.9 µM. The TGI (MDA-MB-231 breast) was 3.21 µM, the TGI (MDA-MB-435) was 9.89 µM and the TGI (OVCAR-4 ovarian) was 13 µM. It also gave a TGI (TK-10 renal) of 6.86 µM.
Compound `COc1ccc(OC)c(SC(CC(=O)c2ccccc2)c2ccccc2)c1` (stereo not given) has a TGI (CCRF-CEM leukemia) greater than 100 µM, a TGI (HCC-2998 colon) of 31.6 µM and a TGI (HCT-15 colon) of 35.4 µM. It also gave a TGI (HOP-92 NSCLC) greater than 100 µM, a TGI (K-562 leukemia) greater than 100 µM and a TGI (KM12 colon) of 15.2 µM. It also gave a TGI (MDA-MB-231 breast) of 25.7 µM, a TGI (MDA-MB-435) of 26.7 µM and a TGI (OVCAR-4 ovarian) greater than 100 µM. The TGI (TK-10 renal) was 32.7 µM.
With `Cc1ccc(S(=O)(=O)Nn2c(O)c(C#N)c(-c3ccc(Cl)cc3)c(C#N)c2=O)cc1` the TGI (CCRF-CEM leukemia) was greater than 100 µM, the TGI (HCC-2998 colon) was greater than 100 µM and the TGI (HCT-15 colon) was greater than 100 µM. The TGI (HOP-92 NSCLC) was greater than 100 µM, the TGI (K-562 leukemia) was greater than 100 µM and the TGI (KM12 colon) was greater than 100 µM. It also gave a TGI (MDA-MB-231 breast) greater than 100 µM, a TGI (MDA-MB-435) greater than 100 µM and a TGI (OVCAR-4 ovarian) greater than 100 µM. The TGI (TK-10 renal) was greater than 100 µM.
